From EP0263213B1, “C20 Through C26 amino steroids” (THE UPJOHN COMPANY, priority 1986, dated 1988) come the findings set out here.

Structures can show the parent of a compound that is named as a salt.

For one assay, the system named is rat brain synaptosomes. Kind of assay: Conjugated Diene Formation Assay. It counts as biochemical. To be noted: active = inhibits conjugated diene formation by 50% or more; 100 »M (or less) of drug, 100 »M hydrogen peroxide, 200 »M ferrous ammonium sulfate. From the text:
The formation of conjugated dienes as assayed by Braughler, J. Neurochem., 44, 1282 (1985), Bucher, Fund. Applied Tox., 3, 222 (1983) and Tein, Arch. Biochem. Biophy., 216, 142 (1982) is a standard pharmacological laboratory procedure useful for identifying compounds which inhibit lipid peroxidation. Since lipid peroxidation is involved in the pathophysiology of central nervous system trauma, compounds which inhibit conjugated diene formation are useful in treating the conditions listed below.
44, 1282 (1985). Synaptosomal suspension (10 »l) is added to 1 ml of physiological (normal) saline containing 1 % Lubrol PX (Sigma Chemical Co. St. Louis, Mo.), 100 »M hydrogen peroxide and 100 »M (or less) of the drug to be tested prepared in either absolute ethanol or water depending upon solubility. The reaction is started by the rapid addition of 200 »M ferrous ammonium sulfate is prepared in argon-purged water. The sample is rapidly mixed and the change in absorbance at 232nm is followied in a Gilford Response Spectrophotometer equipped with a rapid sampler. Due to the rapidity of the reaction, rapid addition of the iron, rapid mixing and sampling are obligatory to the accuracy of the assay. For best results absorbance readings of one/sec should be started within 5 sec following the addition of iron. The initial linear rate of absorbance change during the first 30 sec of reaction are compared with the rate of a reaction containing all reagents except synaptosomes. The difference in rates is the rate of conjugated diene formation. Rates with drug are compared to rates obtained in the absence of drug and the % inhibition is calculated. A compound that inhibits conjugated diene formation by 50% or more is considered to be "active".
`CCN(CC)c1cc(N2CCN(CC(=O)[C@@]3(O)CC[C@H]4[C@@H]5CCC6=CC(=O)CC[C@]6(C)C5=CC[C@@]43C)CC2)nc(N)n1` [Example 4, 21-[4-[2-Amino-6-(diethylamino)-4-pyrimidinyl]-1-piperazinyl]-17α-hydroxypregna-4,9(11)-diene-3,20-dione]: the “inhibition of conjugated diene formation” value is recorded as “demonstrate such activity by inhibition of conjugated dienes”.

`C[C@]12CCC(=O)C=C1CC[C@@H]1C2=CC[C@@]2(C)[C@H]1CC[C@]2(O)C(=O)CN1CCC(O)(c2ccc(C(F)(F)F)cc2)CC1` [Example 5, 17α-Hydroxy-21-[4-hydroxy-4-(4-trifluoromethyl)phenyl-1-piperidinyl]pregna-4,9(11)-diene-3,20-dione]: the “inhibition of conjugated diene formation” value is recorded as “demonstrate such activity by inhibition of conjugated dienes”. For the compound `C[C@@H]1C[C@H]2[C@@H]3CCC4=CC(=O)C=C[C@]4(C)[C@H]3[C@H](O)C[C@]2(C)[C@H]1C(=O)CN1CCN(c2cc(N3CCCC3)nc(N3CCCC3)n2)CC1` [Example 84], the “inhibition of conjugated diene formation” value is listed as “demonstrate such activity by inhibition of conjugated dienes”. On to `C[C@]12C=CC(=O)C=C1CC[C@@H]1C2=CC[C@]2(C)[C@@H](C(=O)CN3CCN(c4cc(N5CCCC5)nc(N5CCCC5)n4)CC3)CC[C@@H]12.Cl.Cl` [Example 111], for which the “inhibition of conjugated diene formation” value is “demonstrate such activity by inhibition of conjugated dienes”. Consider `CC(CN1CCN(c2cc(N3CCCC3)nc(N3CCCC3)n2)CC1)[C@H]1CC[C@H]2[C@@H]3CCC4=CC(=O)C=C[C@]4(C)[C@H]3CC[C@]12C.CS(=O)(=O)O.O` (some centres unmarked) [Example 112], for which the “inhibition of conjugated diene formation” value is reported as “demonstrate such activity by inhibition of conjugated dienes”.

In a further assay the test system is arachidonic acid. Description: Arachidonic Acid Antagonism Assay (AAAA). The format is in vivo. To be noted: 100mg/kg; LD50 of sodium arachidonate, male CF-1 mice, IV. How it is done:
Since these metabolites contribute to the pathological problems associated with stroke, spinal trauma and head injury, compounds which antagonize arachidonic acid are useful in treating stroke, spinal trauma and head injury.
While not necessary to determine arachidonic acid antagonism, the above assay has been modified as follows: Charles River male CF-1 mice weighing 18-22g are treated IV with the test compound dissolved in 1.0% Tween-80 and 0.1% hydrochloric acid in distilled water, 0.2 ml total volume. Fifteen minutes later sodium arachidonate (90% pure) in physiological (normal) saline is injected into the tail vein. The LD₅₀ is measured using the Spearman-Karber method with a log dose interval of 0.05 (N=6). Compounds which elevate the LD₅₀ outside of the 95% confidence interval of the control LD₅₀ are considered to be "active".
`CN1CCN(c2cc(N3CCN(CC(=O)[C@@]4(O)CC[C@H]5[C@@H]6CCC7=CC(=O)CC[C@]7(C)C6=CC[C@@]54C)CC3)nc(N3CCN(C)CC3)n2)CC1.CS(=O)(=O)O.O` [Example 19, 17α-Hydroxy-21-[4-[2,6-bis(4-methyl-1-piperazinyl)-4-pyrimidinyl]-1-piperazinyl]pregna-4,9(11)diene-3,20-dione methanesulfonate hydrate]: the “% of Control LD₅₀ 100mg/kg” value was found to be 141%.

The assay is the same for the next values; noted with them: active = elevates the LD50 of sodium arachidonate outside the 95% confidence interval of the control LD50; test compound IV 15 minutes before; male CF-1 mice.
As for `CCN(CC)c1cc(N2CCN(CC(=O)[C@@]3(O)CC[C@H]4[C@@H]5CCC6=CC(=O)CC[C@]6(C)C5=CC[C@@]43C)CC2)nc(N)n1` [Example 4, 21-[4-[2-Amino-6-(diethylamino)-4-pyrimidinyl]-1-piperazinyl]-17α-hydroxypregna-4,9(11)-diene-3,20-dione], the arachidonic acid antagonism result was “demonstrate arachidonic acid antagonism”. Regarding `CN1CCN(c2cc(N3CCN(CC(=O)[C@@]4(O)CC[C@H]5[C@@H]6CCC7=CC(=O)CC[C@]7(C)C6=CC[C@@]54C)CC3)nc(N3CCN(C)CC3)n2)CC1.CS(=O)(=O)O.O` [Example 19, 17α-Hydroxy-21-[4-[2,6-bis(4-methyl-1-piperazinyl)-4-pyrimidinyl]-1-piperazinyl]pregna-4,9(11)diene-3,20-dione methanesulfonate hydrate], the arachidonic acid antagonism entry is reported as “demonstrate arachidonic acid antagonism”.

As for `C[C@H]1C[C@@H]2[C@H]([C@@H](O)C[C@@]3(C)[C@H]2CC[C@]3(O)C(=O)CN2CCN(c3ccccn3)CC2)[C@@]2(C)C=CC(=O)C=C12` [Example 21, 11β-17α-dihydroxy-6α-methyl-21-[4-(2-pyridinyl)-1-piperazinyl]pregna-1,4-diene-3,20-dione], the arachidonic acid antagonism result is “demonstrate arachidonic acid antagonism”.

With `COc1cccc(N2CCN(CC(=O)[C@@]3(O)CC[C@H]4[C@@H]5CCC6=CC(=O)CC[C@]6(C)C5=CC[C@@]43C)CC2)n1.CS(=O)(=O)O` [Example 22, 17α-hydroxy-21-[4-(6-methoxy-2-pyridinyl)-1-piperazinyl]pregna-4,9(11)-diene-3,20-dione monomethanesulfonate], the arachidonic acid antagonism result is “demonstrate arachidonic acid antagonism”.

In the case of `C[C@]12C=CC(=O)C=C1CC[C@@H]1[C@@H]2[C@@H](O)C[C@@]2(C)[C@H]1CC[C@]2(O)C(=O)CN1CCN(c2ccccn2)CC1` [Example 25, 11β,17α-dihydroxy-21-[4-(2-pyridinyl)-1-piperazinyl]-pregna-1,4-diene-3,20-dione dihydrochloride], the arachidonic acid antagonism result is reported as “demonstrate arachidonic acid antagonism”. Still for that read-out and setting: as for `C[C@]12CCC(=O)C=C1CC[C@@H]1[C@@H]2[C@H](O)C[C@@]2(C)[C@H]1CC[C@]2(O)C(=O)CN1CCN(c2ccc(F)cc2)CC1` [Example 29, 21-[4-(4-fluorophenyl)-1-piperazinyl]-11α,17α-dihydroxypregn-4-ene-3,20-dione dihydrochloride], the entry is “demonstrate arachidonic acid antagonism”.

In another assay the test system is rat brain synaptosomes. Description: Malonyldialdehyde (MDA) Formation Assay. The format is biochemical. To be noted: active = inhibits MDA formation by 50% or more at 200»M or less; 10 min at 37°, pH 7.0, 150 uM Fe+++ and 50 uM Fe++. On the procedure:
Since lipid peroxidation is involved in the pathophysiology of central nervous system trauma, compounds which inhibit MDA formation are useful in treating the conditions listed below.
While not necessary to determine MDA formation, the above assays have been modified as follows: rat brain synaptosomes are prepared as described in the Example about the conjugated diene assay, except that the final wash of the synaptosomes and final suspension are in physiological (normal) saline in which the pH has been adjusted to 7.0. The synaptosomes are incubated for 10 min at 37° in physiological (normal) saline pH 7.0 (total volume = 100 ul) containing; 10 ul synaptosomal suspension, 10% DMSO plus or minus drug, 150 uM Fe⁺⁺⁺ and 50 uM Fe++. The incubation is started by the rapid addition of iron to the otherwise complete reaction. The iron solutions are prepared fresh as ferric chloride and ferrous ammonium sulfate in argon-purged water. Following the 10 min incubation, the reaction is stopped by the addition of 500 ul ice-cold 12% trichloroacetic acid prepared in 0.5 N hydrochoric acid. Water (300 ul) is then added along with 100 ul of freshly prepared thiobarbituric acid (3.3% in 0.5N sodium hydroxide) and 10 ul of 5mM desferrioxamine. The sample is then heated in a boiling water bath for 20 minutes. The samples are cooled and centrifuged for 15 minutes at 1500 xg and the absorbance of the supernatant fraction is read at 532 nm. The % inhibition of MDA formation is calculated by dividing the absorbance of sample containing drug by the absorbance of samples incubated without drug. Reaction blanks are samples incubated in the absence of iron. A compound that inhibits MDA formation by 50% or more at a concentration of 200»M or less is considered "active".
Consider `C[C@]12CCC(=O)C=C1CC[C@@H]1C2=CC[C@]2(C)[C@@H](CCN3CCN(c4cc(N5CCCC5)nc(N5CCCC5)n4)CC3)CC[C@@H]12.Cl` [Example 104, 21-[4-(2,6-Bis(1-pyrrolidinyl)-4-pyrimidinyl)-1-piperazinyl]pregna-4,9(11)-dien-3-one hydrochloride], for which the “inhibition of MDA formation” value is recorded as “demonstrate such activity by inhibition of MDA formation”. Consider `C[C@]12CC[C@H]3[C@@H](CCC4=CC(=O)CC[C@@]43C)[C@@H]1CC[C@@H]2CCN1CCN(c2cc(N3CCCC3)nc(N3CCCC3)n2)CC1.Cl` [Example 107], for which the “inhibition of MDA formation” value is recorded as “demonstrate such activity by inhibition of MDA formation”.

Regarding `C[C@@]12C(=CC(=O)C[C@@H]1C#N)CC[C@@H]1C2=CC[C@]2(C)[C@@H](CCN3CCN(c4cc(N5CCCC5)nc(N5CCCC5)n4)CC3)CC[C@@H]12.Cl.Cl.Cl.O` [Example 110], the “inhibition of MDA formation” value is reported as “demonstrate such activity by inhibition of MDA formation”. On to `C[C@H]1C[C@H]2[C@@H]3C[C@H](F)C4=CC(=O)CC[C@]4(C)C3=CC[C@]2(C)[C@@]1(O)C(=O)CN1CCN(c2cc(N3CCCC3)nc(N3CCCC3)n2)CC1.Cl.Cl` [Example 118], for which the “inhibition of MDA formation” value is listed as “demonstrate such activity by inhibition of MDA formation”. As to `C[C@@H]1C[C@H]2[C@@H]3CCC4=CC(=O)C=C[C@]4(C)[C@H]3CC[C@]2(C)[C@H]1C(=O)CN1CCN(c2cc(N3CCCC3)nc(N3CCCC3)n2)CC1.Cl.Cl` [Example 121], the “inhibition of MDA formation” value is reported as “demonstrate such activity by inhibition of MDA formation”. With `COc1ccc2c(c1)CC[C@@H]1[C@@H]2CC[C@@]2(C)[C@H]1CC[C@]2(O)C(=O)CN1CCN(c2cc(N3CCCC3)nc(N3CCCC3)n2)CC1` [Example 125], the “inhibition of MDA formation” value was “demonstrate such activity by inhibition of MDA formation”.

In the case of `CCNc1cccnc1N1CCN(CC(=O)[C@H]2[C@H](C)C[C@H]3[C@@H]4CCC5=CC(=O)C=C[C@]5(C)C4=CC[C@@]32C)CC1.Cl` [Example 127, 21-[4-[3-(Ethylamino)-2-pyridinyl]piperazinyl]-16α-methylpregna-1,4,9(11)-triene-3,20-dione hydrochloride], the “inhibition of MDA formation” value is “demonstrate such activity by inhibition of MDA formation”. Regarding `C[C@]12CC[C@@H]3c4ccc(O)cc4CC[C@H]3[C@@H]1CC[C@]2(O)C(=O)CN1CCN(c2cc(N3CCCC3)nc(N3CCCC3)n2)CC1` [Example 129, 3,17α-Dihydroxy-21-[4-[2,6-bis(1-pyrrolidinyl)-4-pyrimidinyl]-1-piperazinyl]-19-norpregna-1,3,5-(10)-trien-20-one (E)-2-butenedioate 1:1 salt], the “inhibition of MDA formation” value is on record as “demonstrate such activity by inhibition of MDA formation”.
